Consider one compound from patent US10968214B2, “KRas G12C inhibitors” (Eli Lilly and Company, priority 2018, dated 2021).

The test system of assay [1] is SW837 xenograft. Kind of assay: Anti-tumor growth activity, SW837 colorectal xenograft. Format: in vivo. The conditions noted are these: for Tumor Growth Inhibition (%) or Regression (−%): 28 Day, negative = regression.
In assay [2] the test system is D122-96. The assay can be described thus: Combination 4 day growth assay (Cell TiterGlo), D122-96. In kind it is cell-based. The settings on record: Mus musculus, 96 h, single treatment, read-out: Absolute IC50. The method, then:
(§1) Cell lines for this study are obtained from ATCC and grown under ATCC recommended conditions, except for LXFA-983L, which is obtained from Oncotest/Charles Rivers Laboratories, Wilmington, Mass. and D122-96, which is obtained from L. Eisenbach (Weizman Institute of Science, Rehovot, Israel)—both grown under recommended conditions. […] The proliferation assay is performed as a 4 day growth assay using Cell TiterGlo® as the readout. Briefly, cells are plated in 96-well cell culture plates and allowed to adhere overnight at 37° C. The following day, cells are treated with compounds, either single treatments or combination treatments. First, the testing compounds are serially diluted in DMSO, followed by dilution into media as a 5× concentration with 1% DMSO, and finally added to cells in media to dilute to 1×. The cells are incubated at 37° C. for 4 more days. At the end of the incubation period, Cell TiterGlo® reagent is mixed and added to the wells. After 10 minutes, the luminescence is read by a Perkin Elmer Envision instrument. Absolute IC50 values generated by a 4-parameter logistics model for the single and combination treatments are generated, followed by combination indexes for each combination treatment and cell line. The combination IC50 values are adjusted based on the total concentration of each compound when added together. […] The combination index (CI) measures the degree to which the potency of a combination therapy differs from the expected-if-additive potency and is based on the Loewe definition of additivity.
(§2) [formula] Where • CAy and CBy are the concentrations of therapies A and B that produce an effect, y, when given in combination • ICAy and ICBy are the concentrations of A and B that produce an effect, y, when given individually The biological interpretation of the combination index is as follows: synergistic if the combination index <0.5, additive if the combination index is between 0.5 and 2, and antagonistic if the combination index is >2.

Assay [3] concerns SW1463. The assay can be described thus: Combination 4 day growth assay (Cell TiterGlo), SW1463. The settings on record: Homo sapiens, SW1463, 96 h, single treatment, read-out: Absolute IC50. In kind it is cell-based. How it is done:
as §1, §2
For orientation: Cellular ATP, detected with luciferase, serves as a proxy for viable cell number.

The subject of assay [4] is H358. Kind of assay: Combination 4 day growth assay (Cell TiterGlo), H358. Format: cell-based. The conditions noted are these: Homo sapiens, NCI-H358, 96 h, single treatment, read-out: Absolute IC50. The method, then:
as §1, §2

For assay [5], the system named is Calu-1. Kind of assay: Combination 4 day growth assay (Cell TiterGlo), Calu-1. The settings on record: Homo sapiens, Calu-1, 96 h, single treatment, read-out: Absolute IC50. Format: cell-based. The method, then:
as §1, §2

The test system of assay [6] is EL3187. Kind of assay: CellTiterGlo Cell Proliferation Assay, EL3187. Format: cell-based. The conditions noted are these: KRas G12C, Lung, 96 hr. The method, then:
(§3) A panel of tumor cell lines harboring KRas G12C or other KRas mutations are collected (Table 6). All cell lines are from ATCC or other sources indicated.
(§4) Typically cells are cultured in RPMI1640 or Dulbecco's modified Eagle's medium (DMEM, GIBCO) supplemented with 10% FBS (GIBCO, Invitrogen). For 2D culture cells (4×10^3/well) maintained in growth medium described above, are plated onto 96 well tissue culture plates Corning® Cat. 3603) a day before the treatment. For 3D culture 8000 cells/well are seeded onto 96 well ultra-low attachment tissue culture plates (Corning, #3474). The cells are treated compound for 96 hr, and then are analyzed for viability using the CellTiterGlo® Luminescent Cell Viability Assay® (Promega #G7572 for 2D and Promega #G9683 for 3D cultures) according to manufacturer's instructions and an EnVision™ plate reader. Nonlinear regression and sigmoidal dose-response curves are used to calculate the half maximal inhibitory concentration (IC50) with GraphPad Prism 4® software.

The target of assay [7] is KRas G12C (Homo sapiens, UniProt P01116, G12C). Kind of assay: KRas G12C Probe Occupancy TR-FRET Assay. In kind it is binding. The settings on record: read-out: IC50. How it is done: Inhibitors are tested in dose response format from 10 mM stocks in 100% DMSO. The Labycyte Echo® 555 is used to dilute and transfer 100 nL per well containing a 10 point, 2.8-fold serial dilution to an assay plate. […] The signal ratio (em at 665/em at 615) is converted to percent inhibition using the following equation: % Inhibition=100−[(Test Compound Signal−Median Minimum Signal)/(Median Maximum Signal−Median Minimum Signal)×100].
Chain of KRas G12C (P01116 1-188 isoform P01116-2 G12C): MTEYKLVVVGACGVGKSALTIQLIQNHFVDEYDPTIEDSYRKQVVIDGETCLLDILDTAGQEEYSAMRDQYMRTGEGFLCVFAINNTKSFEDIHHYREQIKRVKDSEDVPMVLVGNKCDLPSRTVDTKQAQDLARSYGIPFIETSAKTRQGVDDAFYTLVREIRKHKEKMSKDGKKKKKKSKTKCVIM
Background: Time-resolved FRET reads energy transfer from a long-lived donor to a nearby acceptor.

Assay [8] relates to H441. Kind of assay: CellTiterGlo Cell Proliferation Assay, H441. Format: cell-based. The conditions noted are these: Homo sapiens, NCI-H441, KRas G12V, lung, 96 hr. The method, then: as §3, §4
The subject of assay [9] is CT-26-H4/KRas G12C. The assay can be described thus: CT-26-H4/KRas G12C mouse syngeneic model, immuno-therapy combination. Format: in vivo. The conditions noted are these: Example 1 30 mg/kg BID × 21 PO, PD-L1 antibody 500 ug/mouse Q7D × 3 IP, PD-1 antibody 250 ug/mouse BIW × 3 IP. The text has this: A mouse syngeneic model is used to evaluate the effects of KRas G12C inhibition and immuno-therapy combination. In this model, the KRas G12D mutation is converted to KRas G12C mutation by CRISPR knock-in in the CT-26 cell line, a mouse colorectal tumor cell line. The KRas G12C knock-in is confirmed by genetic and functional characterization. The engineered cell line is named CT-26-H4/KRas G12C. These cells are implanted to the Balb/c mice, and the compound treatment is started 6 days post tumor cell implantation. PD-1 and PD-L1 inhibitors are known in the art and include durvalumab, pembrolizumab, and nivolumab. […] After 3 weeks, compound treatment is stopped and all tumors in monotherapy groups with the exception of 1 animal in the anti-PD-1 group started to regrow. However, the tumors in the two combination groups have no signs of regrowth.

Setting [10] is: read-out: IC50 (μM) in 2 D cell proliferation.
Where [11] appears, read: read-out: IC50 (μM) in 3 D spheroid cell proliferation.

Like-named read-outs stand apart in the source and are kept apart here.

In the case of `C=CC(=O)N1CCN(c2ncnc3c(F)c(-c4ccc(F)c5sc(N)nc45)c(Cl)cc23)CC1` [Example 1, 1-{4-[7-(2-Amino-7-fluoro-1,3-benzothiazol-4-yl)-6-chloro-8-fluoroquinazolin-4-yl]piperazin-1-yl}prop-2-en-1-one], the “Tumor Growth Inhibition (%) or Regression (−%)” value in assay [1] (15 mg/kg BID) is −17%; in assay [1] (30 mg/kg BID), −46.1%; in assay [1] (30 mg/kg QD) it was −10.8%. Moreover, the “In Vivo Anti-Tumor Activities” value in [1] (Example 1 30 mg/kg QDx28) is reported as −51.8. The IC50 in assay [2] is 124 nM; in assay [3], 14.1 nM; in assay [4], 41.9 nM; in assay [5], 14.5 nM; in [6] (setting [10]), 0.003 µM; in [6] (setting [11]) it was 0.013 µM. Also, the IC50 in assay [7] (5 min incubation) came to 25 nM; in assay [7] (60 min incubation), 24 nM; in [8] (setting [10]), 16.5 µM; in assay [8] (setting [11]), 7.89 µM. For the same compound, the figures for the “Complete Response (% CR)” value in assay [9] (40 days post treatment) and in assay [9] (End of treatment at day 28) were 0% and 10%, respectively. The “Complete Response (CR)/group mice” value is given as 0/10 in [9] (40 days post treatment) and 1/10 in assay [9] (End of treatment at day 28). The “% Tumor Growth Inhibition” value in assay [9] (End of treatment at day 28) worked out at 96%.
